Measurements as given in patent publication US20240197666A1, “DITERPENOID COMPOUNDS THAT ACT ON PROTEIN KINASE C (PKC)” (K-Gen Therapeutics, Inc., priority 2021, published 2024).

Experiments:
[1] = Pharmacokinetic study, intravenous bolus injection in rats; assay type: in vivo, rat; settings: for AUClast / C0 / CL / MRTInf / Vss / Vz / t1/2: rat plasma, bolus injection
Experimental: Plasma samples were taken at 1 minute, 5 minutes, 15 minutes, 30 minutes, 1 hour, 2 hours, 4 hours, 7 hours, and 24 hours. The drug concentrations at each time point were determined by LC-MS. The results of drug concentrations and pharmacokinetic parameters are presented in the Table 6 and Table 7, respectively, below.

4T1-luc2 tumor = assay: 4T1-luc2 orthotopic breast cancer metastasis model, IT injection; assay type: in vivo, mouse
Description: Syngeneic mouse models are frequently used in assessing effect of immune-modulating compounds because both innate and adaptive immune systems are intact in the wild-type mouse strains.
Each 6-8 weeks old female Balb/c mouse was surgically implanted with 1×10^6 4T1-luc2 tumor cells in the abdominal 4th right mammary fat pad for tumor development. The animals were randomized and treatments were started when the average tumor volume reached 86 mm^3. The group assignment, treatment dose, and schedule were as follows:
Mice were monitored daily for clinical signs and body weights were measured regularly as an indirect measure of toxicity. […] .
After grouping, the bioluminescence measurements were taken once per week to monitor tumor growth in the fat pads and metastasis to other organs. Briefly, the mice were weighted and intra-peritoneal injected with luciferin at 150 mg/kg. 10 minutes after the luciferin administration, the animals were pre-anesthetized with the mixture gas of oxygen and isoflurane. The animals were moved into the imaging chamber for bioluminescence measurements with IVIS (Lumina II) in a complete anesthetic state. […] The bioluminescence signal decreased to the baseline range from the third week in three animals. These three animals were monitored for 87 days and their primary tumors were cured without any metastasis (FIG. 9B-9D). […] However, all tumors in the vehicle group mice kept growing, had steady increase in the bioluminescence signals, and had metastasized before mice died before day 40. A Kaplan-Meier method was used to analyze the animal survival rate between the vehicle group (n=12) and the treated group (n=11, one animal died unexpectedly due to animal attacking). The median survival day is 35.5 for the vehicle group and is 42 for the treated group (P<0.05).

MC38 tumors = assay: MC38 syngeneic model, efficacy and re-challenge; assay type: in vivo, mouse; settings: for Live Animal at Day 50: N 8
Experimental: 8 weeks old female C57B/J6J mice were implanted subcutaneously at the right flank with 3×10^5 MC38 mouse colon cancer cells. Mice were randomized into different treatment groups (see above) when tumors grew to an average mean tumor size of 50-80 mm^3. Tumor size was measured three times weekly in two dimensions using a caliper, and the volume was expressed in mm^3 using the formula: V=0.5a×b^2 where a and b are the long and short diameters of the tumor, respectively. Mice were monitored daily for clinical signs and body weights were measured twice per week. All groups tolerated drug treatments very well with less than 10% body weight loss. […] Scabs formed near the site of IT injection and the skin recovered with minimal scaring within 3-4 weeks.
For the efficacy portion of the study, the major endpoint was the animal survival, defined as time to death or euthanasia when tumors ≥2000 mm^3. The survive rate is the proportion of live animals in each group on a given day. A Kaplan-Meier analysis was performed to compare animal survival between vehicle and treated groups. P<0.05 was considered to be statistically significant. Another endpoint is tumor clearance, for which the mice were monitor for over 50 days after the start of the treatment.
To test if anti-tumor immunity was developed in the cured mice, the re-challenge portion of the study was conducted. The major endpoint was the tumor initiation of the re-implanted tumor cells. Tumor fee survive rate is the proportion of tumor fee mice and the mice whose tumor volumes were below 50 mm^3 in each group on a given day. A Mann-Whitney method was performed to analyze the tumor initiation rate at the end of the re-challenge study and P<0.05 was considered to be statistically significant.
MC38 cells (3×10^5) were re-implanted subcutaneously to the other flank (left flank) of the 8 tumor-eradicated mice (two from group 2, three each from groups 3 and 5). No MC38 tumors formed after 36 days in these 8 tumor-eradicated mice. To study the anti-tumor immunity further in the 8 tumor-eradicated mice, MC38 cells (3×10^5) and unrelated 3LL cells (lung cancer) (2×10^6) were re-implanted and implanted at opposite flanks in these mice. As control, five age-matched naïve mice were implanted with 3LL and MC38 tumor cells at opposite flanks. The re-challenge for control and K1K1-C1348101 groups were performed independently, but with same method and condition.

[2] = re-challenge of 8 tumor-eradicated mice with 3LL cells
[3] = re-challenge of 8 tumor-eradicated mice with MC38 cells

Q: Which “Concentration in Rat Plasma after Bolus Injection, Mean” value (shortened to “Concentration in Rat Plasma”) ([1]; Dose 0.1 mg/kg iv, 0.0167 hour post dose) does the source give for `CC1=C[C@H]2[C@@]3(O)[C@H](C)C[C@]4(OC(=O)[C@@H](N)CC5CCCCC5)[C@H]([C@@H]3C=C(CO)C[C@]2(O)C1=O)C4(C)C` here?
A: Its value is 216.0 ng/mL.

Q: What about the “Concentration in Rat Plasma” value ([1]; Dose 0.1 mg/kg iv, 0.0833 hour post dose) of the same molecule?
A: The value was 49.2 ng/mL.

Q: What about the “Concentration in Rat Plasma” value ([1]; Dose 0.1 mg/kg iv, 0.25 hour post dose) of the same molecule?
A: Its value is 28.7 ng/mL.

Q: And the “Concentration in Rat Plasma” value ([1]; Dose 0.1 mg/kg iv, 0.5 hour post dose)?
A: Its value is 19.4 ng/mL.

Q: And the “Concentration in Rat Plasma” value ([1]; Dose 0.1 mg/kg iv, 1 hour post dose)?
A: The value was 14.6 ng/mL.

Q: And the “Concentration in Rat Plasma” value ([1]; Dose 0.1 mg/kg iv, 2 hour post dose)?
A: The value was 5.0 ng/mL.

Q: What about the “Concentration in Rat Plasma” value ([1]; Dose 0.1 mg/kg iv, 4 hour post dose) of the same molecule?
A: The value was 1.0 ng/mL.

Q: And the “Concentration in Rat Plasma” value ([1]; Dose 0.1 mg/kg iv, 7 hour post dose)?
A: Its value is less than 1 ng/mL.

Q: What about the “Concentration in Rat Plasma” value ([1]; Dose 0.1 mg/kg iv, 24 hour post dose) of the same molecule?
A: Its value is less than 1 ng/mL.

Q: What about the “Concentration in Rat Plasma” value ([1]; Dose 0.2 mg/kg iv, 0.0167 hour post dose) of the same molecule?
A: Its value is 334.0 ng/mL.

Q: And the “Concentration in Rat Plasma” value ([1]; Dose 0.2 mg/kg iv, 0.0833 hour post dose)?
A: Its value is 102.0 ng/mL.

Q: And the “Concentration in Rat Plasma” value ([1]; Dose 0.2 mg/kg iv, 0.25 hour post dose)?
A: Its value is 65.0 ng/mL.

Q: What about the “Concentration in Rat Plasma” value ([1]; Dose 0.2 mg/kg iv, 0.5 hour post dose) of the same molecule?
A: Its value is 43.6 ng/mL.

Q: What about the “Concentration in Rat Plasma” value ([1]; Dose 0.2 mg/kg iv, 1 hour post dose) of the same molecule?
A: Its value is 37.6 ng/mL.

Q: What about the “Concentration in Rat Plasma” value ([1]; Dose 0.2 mg/kg iv, 2 hour post dose) of the same molecule?
A: The value was 29.1 ng/mL.

Q: What about the “Concentration in Rat Plasma” value ([1]; Dose 0.2 mg/kg iv, 4 hour post dose) of the same molecule?
A: The value was 6.0 ng/mL.

Q: What about the “Concentration in Rat Plasma” value ([1]; Dose 0.2 mg/kg iv, 7 hour post dose) of the same molecule?
A: Its value is less than 1 ng/mL.

Q: And the “Concentration in Rat Plasma” value ([1]; Dose 0.2 mg/kg iv, 24 hour post dose)?
A: The value was less than 1 ng/mL.

Q: What about the AUClast ([1]; 0.1 mg/kg) of the same molecule?
A: The AUClast was 48.3 ng·h/mL.

Q: What about the C0 ([1]; 0.1 mg/kg) of the same molecule?
A: Its C0 is 314 ng/mL.

Q: What about the CL ([1]; 0.1 mg/kg) of the same molecule?
A: The CL was 32.9 mL/min/kg.

Q: And the MRTInf ([1]; 0.1 mg/kg)?
A: The MRTInf was 0.873 h.

Q: What about the Vss ([1]; 0.1 mg/kg) of the same molecule?
A: Its Vss is 1.73 L/kg.

Q: What about the Vz ([1]; 0.1 mg/kg) of the same molecule?
A: Its Vz is 2.44 L/kg.

Q: And the t1/2 ([1]; 0.1 mg/kg)?
A: The t1/2 was 0.857 h.

Q: And the AUClast ([1]; 0.2 mg/kg)?
A: The AUClast was 119 ng·h/mL.

Q: What about the C0 ([1]; 0.2 mg/kg) of the same molecule?
A: The C0 was 450 ng/mL.

Q: What about the CL ([1]; 0.2 mg/kg) of the same molecule?
A: Its CL is 21.5 mL/min/kg.

Q: What about the MRTInf ([1]; 0.2 mg/kg) of the same molecule?
A: The MRTInf was 2.93 h.

Q: And the Vss ([1]; 0.2 mg/kg)?
A: The Vss was 2.77 L/kg.

Q: What about the Vz ([1]; 0.2 mg/kg) of the same molecule?
A: Its Vz is 3.25 L/kg.

Q: What about the t1/2 ([1]; 0.2 mg/kg) of the same molecule?
A: Its t1/2 is 2.29 h.

Q: What does the source list for `CC1=C[C@H]2[C@@]3(O)[C@H](C)C[C@]4(OC(=O)[C@H](N)CCCCCCc5ccccc5)[C@H]([C@@H]3C=C(CO)C[C@]2(O)C1=O)C4(C)C`?
A: mean body weight loss (4T1-luc2 tumor; 20 mg/ml, 20 μl (400 μg) IT, Balb/c mice): less than 10%; median survival day (4T1-luc2 tumor; 20 mg/ml, 20 μl (400 μg) IT, n=11): 42 days; animals with primary tumors cured without any metastasis (4T1-luc2 tumor; monitored for 87 days, single IT treatment): three; complete eradication of tumors (MC38 tumors; group 2 (5 mg/ml), 2 out of 8 tumors): 25%; % Increased Survival Time (MC38 tumors; group 2: 5 mg/ml, 20 μl it): 45%; Increased Survival Time (MC38 tumors; group 2: 5 mg/ml, 20 μl it): 9 days; Median (MC38 tumors; group 2: 5 mg/ml, 20 μl it): 29 days; Live Animal at Day 50 (MC38 tumors; group 2: 5 mg/ml, 20 μl it, D 0,1,2,7,8,9): 2; complete eradication of tumors (MC38 tumors; group 3 (20 mg/ml), 3 out of 8 tumors): 37.5%; % Increased Survival Time (MC38 tumors; group 3: 20 mg/ml, 20 μl): 23%; Increased Survival Time (MC38 tumors; group 3: 20 mg/ml, 20 μl): 4.5 days; Median (MC38 tumors; group 3: 20 mg/ml, 20 μl): 24.5 days; Live Animal at Day 50 (MC38 tumors; group 3: 20 mg/ml, 20 μl, D 0,1,2): 3; Tumor initiation (mice) (MC38 tumors; [2]): 8; Tumor-free (mice) (MC38 tumors; [2]): 0; Tumor initiation (mice) (MC38 tumors; [3]): 0; Tumor-free (mice) (MC38 tumors; [3]): 8
